Values joined by “and” are separate entries in the source; they are usually repeats but may differ in a detail not shown here. Equal values may be shown once. Toxic doses and inconclusive results are not listed.
System: P388 leukemia ip, CD2F1 mice, survival T/C
Assay: NCI In Vivo Anticancer Drug Screen. Data for tumor model P388 Leukemia (intraperitoneal) in CD2F1 (CDF1) mice
Conditions: endpoint: median survival time, higher = longer survival
Summary of the method: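 Mice carrying the transplanted tumor received test compound or vehicle. Survival was recorded in each group, and the value is the treated-group measurement divided by that of the vehicle-treated control group.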

[1] = dose: 100.0 mg/kg/injection, schedule: Q04DX003 (ip), vehicle: saline with Tween-80
[2] = dose: 200.0 mg/kg/injection, schedule: Q04DX003 (ip), vehicle: saline with Tween-80
[3] = dose: 400.0 mg/kg/injection, schedule: Q04DX003 (ip), vehicle: saline with Tween-80
[4] = dose: 50.0 mg/kg/injection, schedule: Q01DX009 (ip), vehicle: saline
[5] = dose: 100.0 mg/kg/injection, schedule: Q01DX009 (ip), vehicle: saline

CC(=O)C1=C(c2ccccc2)NC(=O)NC1c1ccco1 (stereo unspecified)
T/C [1]: 95 % of control | T/C [2]: 95 % of control | T/C [3]: 90 % of control

BrC1=NOC2c3cccc4cccc(c34)C12 (stereo unspecified)
T/C (dose: 60.0 mg/kg/injection, schedule: Q01DX005 (ip), vehicle: saline with Tween-80): 108 % of control | T/C (dose: 120.0 mg/kg/injection, schedule: Q01DX005 (ip), vehicle: saline with Tween-80): 106 % of control | T/C (dose: 240.0 mg/kg/injection, schedule: Q01DX005 (ip), vehicle: saline with Tween-80): 105 % of control

Cl[C](Cl)(Cl)[Hg][c]1ccccc1
T/C (dose: 1.5 mg/kg/injection, schedule: Q01DX009 (ip), vehicle: saline with Tween-80): 98 % of control | T/C (dose: 3.0 mg/kg/injection, schedule: Q01DX009 (ip), vehicle: saline with Tween-80): 99 % of control | T/C (dose: 6.0 mg/kg/injection, schedule: Q01DX009 (ip), vehicle: saline with Tween-80): 114 % of control | T/C (dose: 12.0 mg/kg/injection, schedule: Q01DX009 (ip), vehicle: saline with Tween-80): 89 % of control

CNC(=O)OCc1c(-c2ccccc2)c(-c2ccccc2)n(-c2ccc(OC)cc2)c1COC(=O)NC
T/C (dose: 12.5 mg/kg/injection, schedule: Q01DX009 (ip), vehicle: distilled water + Tween-80): 106 % of control | T/C (dose: 25.0 mg/kg/injection, schedule: Q01DX009 (ip), vehicle: distilled water + Tween-80): 103 % of control and 119 % of control | T/C (dose: 50.0 mg/kg/injection, schedule: Q01DX009 (ip), vehicle: distilled water + Tween-80): 102 % of control and 119 % of control | T/C (dose: 100.0 mg/kg/injection, schedule: Q01DX009 (ip), vehicle: distilled water + Tween-80): 116 % of control and 124 % of control

COC1=CP(C)(=S)CC1 (stereo unspecified)
T/C (dose: 100.0 mg/kg/injection, schedule: Q04DX003 (ip), vehicle: Klucel (hydroxypropylcellulose) (HPC)): 112 % of control | T/C (dose: 200.0 mg/kg/injection, schedule: Q04DX003 (ip), vehicle: Klucel (hydroxypropylcellulose) (HPC)): 98 % of control

COC(=O)c1csccc1=O
T/C (dose: 50.0 mg/kg/injection, schedule: Q01DX005 (ip), vehicle: Klucel (hydroxypropylcellulose) (HPC)): 112 % of control | T/C (dose: 100.0 mg/kg/injection, schedule: Q01DX005 (ip), vehicle: Klucel (hydroxypropylcellulose) (HPC)): 97 % of control | T/C (dose: 200.0 mg/kg/injection, schedule: Q01DX005 (ip), vehicle: Klucel (hydroxypropylcellulose) (HPC)): 95 % of control

Cc1n[nH]c(=S)nc1C
T/C (dose: 12.5 mg/kg/injection, schedule: Q04DX003 (ip), vehicle: saline with Tween-80): 100 % of control | T/C (dose: 25.0 mg/kg/injection, schedule: Q04DX003 (ip), vehicle: saline with Tween-80): 93 % of control | T/C (dose: 50.0 mg/kg/injection, schedule: Q04DX003 (ip), vehicle: saline with Tween-80): 100 % of control | T/C [1]: 95 % of control

COC(=O)c1cn(C(C)=O)c(C)c1C(=O)OC
T/C (dose: 100.0 mg/kg/injection, schedule: Q01DX001 (ip), vehicle: saline with Tween-80): 100 % of control | T/C (dose: 200.0 mg/kg/injection, schedule: Q01DX001 (ip), vehicle: saline with Tween-80): 95 % of control | T/C (dose: 400.0 mg/kg/injection, schedule: Q01DX001 (ip), vehicle: saline with Tween-80): 104 % of control

CCC1(CN(C)C)C(=O)N(C)C(=O)N(C2CCCCC2)C1=O (stereo unspecified)
T/C (dose: 50.0 mg/kg/injection, schedule: Q01DX009 (ip), vehicle: saline with Tween-80): 96 % of control | T/C (dose: 100.0 mg/kg/injection, schedule: Q01DX009 (ip), vehicle: saline with Tween-80): 102 % of control | T/C (dose: 200.0 mg/kg/injection, schedule: Q01DX009 (ip), vehicle: saline with Tween-80): 107 % of control

C=C1C(=O)OC2(C)C3CCC(C3)C12 (stereo unspecified)
T/C [4]: 96 % of control | T/C [5]: 113 % of control

O=Cc1c(-c2ccc(Cl)cc2)nc2sccn12
T/C (dose: 100.0 mg/kg/injection, schedule: Q01DX001 (ip), vehicle: Klucel (hydroxypropylcellulose) (HPC)): 93 % of control | T/C (dose: 200.0 mg/kg/injection, schedule: Q01DX001 (ip), vehicle: Klucel (hydroxypropylcellulose) (HPC)): 96 % of control | T/C (dose: 400.0 mg/kg/injection, schedule: Q01DX001 (ip), vehicle: Klucel (hydroxypropylcellulose) (HPC)): 93 % of control

CCCCCC(O)CCCCC
T/C [1]: 100 % of control | T/C [2]: 109 % of control | T/C [3]: 100 % of control

NCC(N)CCC(=O)O (stereo unspecified)
T/C (dose: 50.0 mg/kg/injection, schedule: Q01DX005 (ip), vehicle: saline): 99 % of control | T/C (dose: 100.0 mg/kg/injection, schedule: Q01DX005 (ip), vehicle: saline): 105 % of control | T/C (dose: 200.0 mg/kg/injection, schedule: Q01DX005 (ip), vehicle: saline): 105 % of control

O=C1c2ccccc2NC(c2cc(Cl)cc(Cl)c2O)N1CCc1ccccn1 (stereo unspecified)
T/C [4]: 92 % of control | T/C [5]: 94 % of control

Cc1ccc2c(NCCCCCCCCNc3c4ccccc4nc4cc(C)ccc34)c3ccccc3nc2c1
T/C (dose: 2.5 mg/kg/injection, schedule: Q01DX009 (ip), vehicle: water): 150 % of control

CCCNP1(NCCC)=NP(NCCC)(NCCC)=NP(NCCC)(NCCC)=NP(NCCC)(NCCC)=N1
T/C (dose: 12.5 mg/kg/injection, schedule: Q01DX005 (ip), vehicle: saline with Tween-80): 104 % of control | T/C (dose: 25.0 mg/kg/injection, schedule: Q01DX005 (ip), vehicle: saline with Tween-80): 99 % of control | T/C (dose: 50.0 mg/kg/injection, schedule: Q01DX005 (ip), vehicle: saline with Tween-80): 100 % of control and 104 % of control

— PubChem BioAssay AID330 (DTP/NCI, 2004)
